These results are taken from patent US8002740B2, “Devices for maintaining patency of surgically created channels in tissue” (Broncus Technologies, Inc., priority 2003, dated 2011).

For the series the following is noted: polymer system of polydimethylsiloxane vinyl terminated at various viscosity and a range of platinum-mono, di, tri and/or tetramethyldisiloxane complex.

Excerpt: The composition for the example may be as follow: polymer part: polydimethylsiloxane, vinyldimethyl terminated, any viscosity; and/or polydimethylsiloxane, vinylmonomethyl terminated, any viscosity. The cross-linker part: polydimethylsiloxane, any viscosity; and or polymonomethylsiloxane, any viscosity. Platinum catalyst part and/or cross-linker part: platinum; and/or platinum-divinyltetramethyldisiloxane complex in xylene, 2-3% Pt; and/or platinum-divinyltetramethyldisiloxane complex in vinyl terminated polydimethylsiloxane, 2-3% Pt; and/or platinum-divinyltetramethyldisiloxane complex in vinyl terminated polydimethylsiloxane, ˜1% Pt; platinum-Cyclovinylmethylsiloxane complex, 2-3% Pt in cyclic vinyl methyl siloxane.
These components may be combined in different ratios to make the polymer. […] The amount of vinyl siloxane cross-linker may determine the rate of the drug release and diffusivity of the polymer to the drug.

With `CC(=O)O[C@H]1C(=O)[C@@]2(C)[C@H]([C@H](OC(=O)c3ccccc3)[C@]3(O)C[C@H](OC(=O)[C@H](O)[C@@H](NC(=O)c4ccccc4)c4ccccc4)C(C)=C1C3(C)C)[C@]1(OC(C)=O)CO[C@@H]1C[C@@H]2O` [paclitaxel], the release profile result is listed as “acceptable”.
